The values that follow are results of earlier work, collected in paper PMC9851200, “Multiparameter phenotypic screening for endogenous TFEB and TFE3 translocation identifies novel chemical series modulating lysosome function” (Autophagy, 2022).

What all share (parameters): method as in original PKIS2 published data
Data set [1] addresses kinases (KINOMEscan panel) (Homo sapiens, UniProt P42684). To be noted: ABL2; Published KINOMEscan; ref original PKIS2 published data; cited from earlier work.
Data set [2] has as its target T1, kinases (KINOMEscan panel) (Homo sapiens, UniProt Q8WTQ7).
T1 sequence (Q8WTQ7 1-553): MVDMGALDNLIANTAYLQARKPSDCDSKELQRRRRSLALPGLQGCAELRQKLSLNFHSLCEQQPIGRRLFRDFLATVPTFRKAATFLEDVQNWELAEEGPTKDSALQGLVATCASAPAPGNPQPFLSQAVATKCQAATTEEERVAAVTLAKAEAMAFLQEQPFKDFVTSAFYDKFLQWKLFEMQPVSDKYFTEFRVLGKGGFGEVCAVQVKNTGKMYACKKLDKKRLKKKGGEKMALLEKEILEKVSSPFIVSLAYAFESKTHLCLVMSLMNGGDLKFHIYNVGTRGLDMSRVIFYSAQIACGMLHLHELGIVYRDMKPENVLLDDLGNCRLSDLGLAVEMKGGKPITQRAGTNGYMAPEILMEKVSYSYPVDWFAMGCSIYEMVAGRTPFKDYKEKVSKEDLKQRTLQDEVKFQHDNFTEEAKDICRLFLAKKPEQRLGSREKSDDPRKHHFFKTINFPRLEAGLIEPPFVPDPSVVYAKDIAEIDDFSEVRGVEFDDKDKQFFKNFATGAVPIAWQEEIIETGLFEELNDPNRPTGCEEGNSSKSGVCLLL
To be noted: kinase GRK7; Published KINOMEscan; ref original PKIS2 published data; cited from earlier work.

For data set [3], the target named is T2, kinases (KINOMEscan panel) (Homo sapiens, UniProt P51955).
T2 sequence (P51955 1-445): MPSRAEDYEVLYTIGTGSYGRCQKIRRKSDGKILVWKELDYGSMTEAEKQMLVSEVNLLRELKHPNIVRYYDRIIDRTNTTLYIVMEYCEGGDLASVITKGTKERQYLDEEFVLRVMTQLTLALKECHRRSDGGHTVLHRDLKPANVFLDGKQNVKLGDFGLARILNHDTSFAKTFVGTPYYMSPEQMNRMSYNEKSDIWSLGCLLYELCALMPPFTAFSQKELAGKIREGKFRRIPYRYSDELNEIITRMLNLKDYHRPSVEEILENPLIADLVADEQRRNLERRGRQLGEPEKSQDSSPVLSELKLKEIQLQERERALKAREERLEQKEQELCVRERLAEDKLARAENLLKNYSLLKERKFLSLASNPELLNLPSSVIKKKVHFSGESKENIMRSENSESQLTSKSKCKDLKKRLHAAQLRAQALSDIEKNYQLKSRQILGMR
To be noted: kinase NEK2; Published KINOMEscan; ref original PKIS2 published data; cited from earlier work.

Data set [4] addresses kinases (KINOMEscan panel) (Homo sapiens, UniProt P06241). To be noted: kinase FYN; Published KINOMEscan; ref original PKIS2 published data; cited from earlier work.
The target of data set [5] is T3, kinases (KINOMEscan panel) (Homo sapiens, UniProt P42681).
T3 sequence (P42681 1-527): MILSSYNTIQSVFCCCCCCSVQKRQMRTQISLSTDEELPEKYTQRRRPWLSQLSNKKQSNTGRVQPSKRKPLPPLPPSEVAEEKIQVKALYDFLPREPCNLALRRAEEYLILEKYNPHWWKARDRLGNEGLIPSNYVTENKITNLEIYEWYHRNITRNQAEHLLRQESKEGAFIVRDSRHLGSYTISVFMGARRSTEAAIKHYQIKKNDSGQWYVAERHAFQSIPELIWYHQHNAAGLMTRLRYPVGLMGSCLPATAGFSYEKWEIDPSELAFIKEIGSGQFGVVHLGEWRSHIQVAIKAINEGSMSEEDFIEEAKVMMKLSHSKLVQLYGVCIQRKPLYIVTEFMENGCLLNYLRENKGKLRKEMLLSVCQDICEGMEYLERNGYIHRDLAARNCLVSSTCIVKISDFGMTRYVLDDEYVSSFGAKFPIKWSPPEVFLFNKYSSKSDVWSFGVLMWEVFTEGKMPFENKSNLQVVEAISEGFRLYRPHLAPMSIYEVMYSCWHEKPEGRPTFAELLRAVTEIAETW
To be noted: kinase TXK; Published KINOMEscan; ref original PKIS2 published data; cited from earlier work.

In data set [6] the target is kinases (KINOMEscan panel) (Homo sapiens, UniProt Q04759). To be noted: kinase PRKCQ; Published KINOMEscan; ref original PKIS2 published data; cited from earlier work.
Data set [7] has as its target T4, kinases (KINOMEscan panel) (Homo sapiens, UniProt Q92630).
T4 sequence (Q92630 1-601): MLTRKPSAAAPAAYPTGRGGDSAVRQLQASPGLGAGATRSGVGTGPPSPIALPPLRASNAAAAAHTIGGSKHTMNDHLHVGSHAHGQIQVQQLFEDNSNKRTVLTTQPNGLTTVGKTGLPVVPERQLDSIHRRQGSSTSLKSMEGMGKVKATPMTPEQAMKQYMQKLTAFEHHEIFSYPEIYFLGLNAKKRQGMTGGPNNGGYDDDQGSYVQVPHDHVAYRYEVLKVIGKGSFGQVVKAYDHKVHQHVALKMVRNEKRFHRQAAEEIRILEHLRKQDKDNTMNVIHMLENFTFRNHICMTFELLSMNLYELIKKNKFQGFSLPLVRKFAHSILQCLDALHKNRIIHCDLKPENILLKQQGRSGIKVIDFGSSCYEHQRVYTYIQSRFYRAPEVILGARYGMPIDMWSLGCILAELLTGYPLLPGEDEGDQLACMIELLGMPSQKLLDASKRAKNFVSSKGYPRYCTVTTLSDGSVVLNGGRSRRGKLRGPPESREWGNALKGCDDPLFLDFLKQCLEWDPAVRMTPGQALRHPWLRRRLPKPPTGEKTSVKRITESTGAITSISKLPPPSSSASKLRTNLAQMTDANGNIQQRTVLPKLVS
To be noted: DYRK2; Published KINOMEscan; ref original PKIS2 published data; cited from earlier work.

For data set [8], the target named is kinases (KINOMEscan panel) (Homo sapiens, UniProt P50613). To be noted: kinase CDK7; Published KINOMEscan; ref original PKIS2 published data; cited from earlier work.
In data set [9] the target is kinases (KINOMEscan panel) (Homo sapiens, UniProt P00533). To be noted: kinase EGFR; Published KINOMEscan; ref original PKIS2 published data; cited from earlier work.
Chain of kinases (KINOMEscan panel) (Homo sapiens, UniProt P00533) (P00533 25-1210): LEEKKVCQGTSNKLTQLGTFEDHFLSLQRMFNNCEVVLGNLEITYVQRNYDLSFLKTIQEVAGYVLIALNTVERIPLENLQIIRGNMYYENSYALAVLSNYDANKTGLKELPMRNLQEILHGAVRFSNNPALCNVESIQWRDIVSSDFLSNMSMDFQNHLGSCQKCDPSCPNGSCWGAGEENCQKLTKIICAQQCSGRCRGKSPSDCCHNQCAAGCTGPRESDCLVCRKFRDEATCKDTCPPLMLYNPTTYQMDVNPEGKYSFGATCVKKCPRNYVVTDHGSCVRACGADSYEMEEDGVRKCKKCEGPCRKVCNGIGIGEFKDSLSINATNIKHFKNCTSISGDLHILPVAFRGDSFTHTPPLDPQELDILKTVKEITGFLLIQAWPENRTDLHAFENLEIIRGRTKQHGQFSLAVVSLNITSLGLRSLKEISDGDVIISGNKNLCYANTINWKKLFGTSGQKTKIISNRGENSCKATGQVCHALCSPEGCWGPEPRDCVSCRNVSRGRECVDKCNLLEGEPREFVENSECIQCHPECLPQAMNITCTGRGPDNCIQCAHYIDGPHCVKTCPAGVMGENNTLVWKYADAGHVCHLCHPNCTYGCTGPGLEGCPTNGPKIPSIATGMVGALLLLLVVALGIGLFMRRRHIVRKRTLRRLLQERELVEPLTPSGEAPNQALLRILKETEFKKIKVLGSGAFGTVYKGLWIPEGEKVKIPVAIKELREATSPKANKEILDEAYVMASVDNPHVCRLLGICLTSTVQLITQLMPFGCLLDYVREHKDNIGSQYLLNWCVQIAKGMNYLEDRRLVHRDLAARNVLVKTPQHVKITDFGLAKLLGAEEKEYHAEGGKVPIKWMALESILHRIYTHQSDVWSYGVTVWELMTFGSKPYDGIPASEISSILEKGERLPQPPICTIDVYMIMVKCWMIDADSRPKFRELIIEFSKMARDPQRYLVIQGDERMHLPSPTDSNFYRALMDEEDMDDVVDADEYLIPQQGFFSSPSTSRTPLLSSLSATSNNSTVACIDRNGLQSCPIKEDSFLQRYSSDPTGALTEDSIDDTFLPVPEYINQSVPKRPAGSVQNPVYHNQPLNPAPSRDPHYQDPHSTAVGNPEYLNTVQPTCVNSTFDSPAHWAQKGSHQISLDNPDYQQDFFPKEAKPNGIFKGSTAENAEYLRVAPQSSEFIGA

Chain of kinases (KINOMEscan panel) (Homo sapiens, UniProt Q04759) (Q04759 whole entry): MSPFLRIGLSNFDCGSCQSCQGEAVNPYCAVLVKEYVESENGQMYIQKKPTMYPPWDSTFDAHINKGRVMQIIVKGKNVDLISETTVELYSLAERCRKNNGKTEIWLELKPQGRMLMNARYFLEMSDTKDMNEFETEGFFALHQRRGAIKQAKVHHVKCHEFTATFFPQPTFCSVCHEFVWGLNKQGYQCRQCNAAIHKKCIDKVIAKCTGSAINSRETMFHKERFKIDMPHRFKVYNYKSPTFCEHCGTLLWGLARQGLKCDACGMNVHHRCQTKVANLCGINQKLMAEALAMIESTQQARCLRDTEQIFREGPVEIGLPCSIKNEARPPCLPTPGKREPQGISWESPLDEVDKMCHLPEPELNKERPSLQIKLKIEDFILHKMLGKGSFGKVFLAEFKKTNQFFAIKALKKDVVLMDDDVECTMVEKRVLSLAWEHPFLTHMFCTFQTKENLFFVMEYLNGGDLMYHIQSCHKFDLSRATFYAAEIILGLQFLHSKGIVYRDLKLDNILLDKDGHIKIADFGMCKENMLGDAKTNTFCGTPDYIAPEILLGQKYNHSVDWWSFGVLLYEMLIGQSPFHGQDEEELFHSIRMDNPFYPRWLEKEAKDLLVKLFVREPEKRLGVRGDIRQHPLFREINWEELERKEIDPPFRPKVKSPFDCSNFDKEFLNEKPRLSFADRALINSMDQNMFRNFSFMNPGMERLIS
Chain of kinases (KINOMEscan panel) (Homo sapiens, UniProt P50613) (P50613 whole entry): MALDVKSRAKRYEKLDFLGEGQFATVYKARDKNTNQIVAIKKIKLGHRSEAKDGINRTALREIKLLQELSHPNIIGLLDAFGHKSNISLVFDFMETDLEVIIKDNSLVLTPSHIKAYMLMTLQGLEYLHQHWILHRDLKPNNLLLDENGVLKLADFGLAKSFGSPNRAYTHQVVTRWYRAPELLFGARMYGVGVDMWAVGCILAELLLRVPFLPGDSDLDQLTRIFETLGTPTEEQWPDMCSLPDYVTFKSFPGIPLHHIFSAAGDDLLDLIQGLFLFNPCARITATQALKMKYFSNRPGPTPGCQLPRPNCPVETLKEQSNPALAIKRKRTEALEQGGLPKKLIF
Chain of kinases (KINOMEscan panel) (Homo sapiens, UniProt P06241) (P06241 whole entry): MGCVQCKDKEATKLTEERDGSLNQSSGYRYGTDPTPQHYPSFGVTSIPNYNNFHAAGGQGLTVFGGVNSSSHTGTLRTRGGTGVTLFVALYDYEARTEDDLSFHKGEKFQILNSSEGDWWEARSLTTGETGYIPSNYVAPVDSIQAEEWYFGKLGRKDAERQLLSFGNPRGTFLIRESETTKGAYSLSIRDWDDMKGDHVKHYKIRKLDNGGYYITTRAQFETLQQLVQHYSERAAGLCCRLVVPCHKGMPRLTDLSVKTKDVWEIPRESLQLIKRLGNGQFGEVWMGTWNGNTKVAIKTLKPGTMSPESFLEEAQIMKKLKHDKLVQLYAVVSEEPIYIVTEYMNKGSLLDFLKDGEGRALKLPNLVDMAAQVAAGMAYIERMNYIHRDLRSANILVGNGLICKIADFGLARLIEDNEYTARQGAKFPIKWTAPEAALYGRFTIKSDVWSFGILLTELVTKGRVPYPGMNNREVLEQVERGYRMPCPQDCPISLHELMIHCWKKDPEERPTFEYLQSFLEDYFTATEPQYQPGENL
Chain of kinases (KINOMEscan panel) (Homo sapiens, UniProt P42684) (P42684 whole entry): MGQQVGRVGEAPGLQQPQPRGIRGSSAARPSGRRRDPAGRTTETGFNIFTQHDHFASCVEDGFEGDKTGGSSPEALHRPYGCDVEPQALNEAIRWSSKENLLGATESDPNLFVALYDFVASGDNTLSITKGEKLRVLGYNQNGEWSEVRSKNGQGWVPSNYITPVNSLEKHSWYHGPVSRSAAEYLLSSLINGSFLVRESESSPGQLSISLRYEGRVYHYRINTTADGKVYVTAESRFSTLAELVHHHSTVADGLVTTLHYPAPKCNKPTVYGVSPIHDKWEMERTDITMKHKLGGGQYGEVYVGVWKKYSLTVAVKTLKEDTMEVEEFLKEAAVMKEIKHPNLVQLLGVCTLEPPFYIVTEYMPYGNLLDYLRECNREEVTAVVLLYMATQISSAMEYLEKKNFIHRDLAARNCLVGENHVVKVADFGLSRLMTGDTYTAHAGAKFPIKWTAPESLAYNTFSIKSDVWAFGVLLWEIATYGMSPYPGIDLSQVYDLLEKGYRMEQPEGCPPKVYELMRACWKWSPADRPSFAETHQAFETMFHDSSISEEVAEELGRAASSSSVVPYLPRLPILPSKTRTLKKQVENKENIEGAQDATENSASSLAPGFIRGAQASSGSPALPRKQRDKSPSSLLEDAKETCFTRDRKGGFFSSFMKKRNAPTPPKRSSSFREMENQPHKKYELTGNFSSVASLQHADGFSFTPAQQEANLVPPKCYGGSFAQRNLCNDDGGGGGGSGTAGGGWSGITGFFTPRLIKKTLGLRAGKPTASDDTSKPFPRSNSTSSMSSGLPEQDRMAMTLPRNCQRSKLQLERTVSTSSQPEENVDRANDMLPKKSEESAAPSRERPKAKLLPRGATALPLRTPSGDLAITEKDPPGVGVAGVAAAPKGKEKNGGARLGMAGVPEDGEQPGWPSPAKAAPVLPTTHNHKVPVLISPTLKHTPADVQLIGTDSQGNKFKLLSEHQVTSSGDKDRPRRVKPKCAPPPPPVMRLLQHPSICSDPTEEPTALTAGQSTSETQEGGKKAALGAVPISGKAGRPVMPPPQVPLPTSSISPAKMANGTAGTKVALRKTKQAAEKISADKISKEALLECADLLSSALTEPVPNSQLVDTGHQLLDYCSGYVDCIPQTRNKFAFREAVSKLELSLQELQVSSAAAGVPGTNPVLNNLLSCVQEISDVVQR

Take `Cc1cccc(-c2nc(Nc3ccncc3)c3ccccc3n2)n1` [NK215]: the “KINOMEscan ABL2” value in [1] is 22. Besides, in data set [2], the “KINOMEscan GRK7” value is listed as 0. In [3], the “KINOMEscan NEK2” value was 0. Further, the “KINOMEscan FYN” value in data set [4] is on record as 13. In data set [5], the “KINOMEscan TXK” value is reported as 11. Moreover, in [6], the “KINOMEscan PRKCQ” value is 0. Besides, in data set [7], the “KINOMEscan DYRK2” value is 0. In addition, in data set [8], the “KINOMEscan CDK7” value is reported as 0. Further, in [9], the “KINOMEscan EGFR” value is listed as 6.
